In patent US7179800B2 (priority 2002, dated 2007):
Where “and” joins values, the source holds several entries; their conditions need not be identical. Identical values can stand only once. Like-named read-outs stand apart in the source and are kept apart here.

Tests used:
[1] = tested on: Male ICR mice; assay: Change in rectal temperature (RT) in mice; format: in vivo, mouse; conditions: for R.T. effect at dose: @ 30 (mg/kg); for RT effect at the highest dose (change in rectal temperature): 30 mg/kg; for ED50: Mus musculus, iv
Procedure: (§1) Male ICR mice (25–32 g), obtained from Harlan (Dublin, Va.), were housed in groups of five. All animals were kept in a temperature-controlled (20–22° C.) environment with a 12-hour light-dark cycle (lights on at 7 a.m.). Separate mice were used for testing each drug dose in the in vivo behavioral procedures. Brain tissue for binding studies was obtained from male Sprague-Dawley rats (150–200 g) purchased from Harlan Laboratories (Dublin, Va.).
(§2) Measurement of spontaneous activity in mice occurred in standard activity chambers interfaced with a Digiscan Animal Activity Monitor (Omnitech Electronics, Inc., Columbus, Ohio). A standard tail-flick apparatus and a digital thermometer (Fisher Scientific, Pittsburgh, Pa.) were used to measure antinociception and rectal temperature, respectively
(§3) Resorcinols were synthesized in our labs (Organix, Inc., Woburn, Mass.) according to the procedure specified below and were suspended in a vehicle of absolute ethanol, Emulphor-620 (Rhone-Poulenc, Inc., Princeton, N.J.), and saline in a ratio of 1:1:18. Drugs were administered to the mice intravenously (i.v.) in the tail vein at a volume of 0.1 ml/10 g.
(§4) Prior to testing in the behavioral procedures, mice were acclimated to the experimental setting (ambient temperature 22–24° C.) overnight. Pre-injection control values were determined for rectal temperature and tail-flick latency (in sec). […] Tail-flick latency was measured at 20 min post-injection. Maximum latency of 10 sec was used. Antinociception was calculated as percent of maximum possible effect {% MPE=[(test−control latency)/(10-control)]×100}. Control latencies typically ranged from 1.5 to 4.0 sec. At 30 min post-injection, rectal temperature was measured This value was expressed as the difference between control temperature (before injection) and temperatures following drug administration (° C.). Different mice (n=5–6 per dose) were tested for each dose of each compound. Each mouse was tested in each of the 3 procedures.
(§5) Based on data obtained from numerous previous studies with cannabinoids, maximal cannabinoid effects in each procedure were estimated as follows: 90% inhibition of spontaneous activity, 100% MPE in the tail flick procedure, and −6° C. change in rectal temperature. ED50's were defined as the dose at which half maximal effect occurred. For drugs that produced one or more cannabinoid effect, ED50's were calculated separately using least-squares linear regression on the linear part of the dose-effect curve for each measure in the mouse tetrad, plotted against log10 transformation of the dose. For the purposes of potency comparison, potencies were expressed as μmol/kg.

[2] = target: CB1 receptor (Rattus norvegicus, UniProt P20272); assay: CB1 binding procedure: displacement of [3H]CP 55,940 from rat whole-brain P2 membranes; design: whole brain was homogenized and centrifuged; from tissue; host or cells: rat whole brain, P2 membrane fraction; conditions: for Ki: [3H]CP 55,940, rat brain membranes; for fold decrease in CB1 affinity: relative to the comparator analog
CB1 receptor, sequence (P20272 whole entry): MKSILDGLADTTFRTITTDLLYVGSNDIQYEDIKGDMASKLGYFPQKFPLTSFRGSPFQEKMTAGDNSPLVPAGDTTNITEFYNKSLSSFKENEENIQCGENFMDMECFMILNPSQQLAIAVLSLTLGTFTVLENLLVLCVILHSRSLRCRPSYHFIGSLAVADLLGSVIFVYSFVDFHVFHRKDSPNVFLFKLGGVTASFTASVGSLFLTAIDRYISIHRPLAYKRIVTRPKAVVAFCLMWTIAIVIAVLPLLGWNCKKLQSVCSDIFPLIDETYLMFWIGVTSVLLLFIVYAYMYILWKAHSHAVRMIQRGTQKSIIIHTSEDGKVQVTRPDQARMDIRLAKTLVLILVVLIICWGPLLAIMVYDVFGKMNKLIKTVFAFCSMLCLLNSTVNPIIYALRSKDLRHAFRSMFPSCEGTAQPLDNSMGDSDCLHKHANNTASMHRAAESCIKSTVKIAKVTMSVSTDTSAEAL
Procedure: as §1
The methods used for tissue preparation and binding have been described previously (Compton et al., 1993) and are similar to those described by Devane et al. (1988). All assays, as described briefly below, were performed in triplicate, and the results represent the combined data from three to six individual experiments.
Following decapitation and rapid removal of the brain, whole brain was homogenized and centrifuged. The resulting pellet was termed P1. The supernatant was saved and combined with the two subsequent supernatants obtained from washing of the P1 pellet. The combined supernatant fractions were centrifuged, resulting in the P2 pellet. After further incubation and centrifuging, this pellet was resuspended in assay buffer to a protein concentration of approximately 2 mg/ml. The membrane preparation was quickly frozen in a bath solution of dry ice and 2-methylbutane (Sigma Chemical Co., St. Louis, Mo.), then stored at −80° C. for no more than 2 weeks. Prior to performing a binding assay an aliquot of frozen membrane was rapidly thawed and protein values determined by the method of Bradford (1976).
Binding was initiated by the addition of 150 μg of P2 membrane to test tubes containing 1 nM of [^3H] CP 55,940 (79 Ci/mmol) and a sufficient quantity of buffer to bring the total incubation volume to 1 ml. Nonspecific binding was determined by the addition of 1 μM unlabeled CP 55,940. Following incubation at 30° C. for 1 hr, binding was terminated by addition of ice cold buffer and vacuum filtration through pretreated filters in a 12-well sampling manifold (Millipore, Bedford, Mass.). After washing, filters were placed into plastic scintillation vials (Packard, Downer Grove, Ill.) and shaken. The quantity of radioactivity present was determined by liquid scintillation spectrometry.
(§6) In addition, multiple linear regression was used to calculate the overall degree of relationship between CB1 binding affinity and potency in the mouse measures for all active cannabinoids. […] Ki values for CB1 and CB2 binding were obtained from Scatchard displacement analysis as determined via EBDA program of the KELL software package (Biosoft, Milltown, N.J.).

[3] = tested on: Male ICR mice; assay: Tail-flick antinociception (TF, % MPE) in mice; format: in vivo, mouse; conditions: for T.F. % effect at dose: @ 30 (mg/kg); for TF percent effect (% MPE) at the highest dose: 30 mg/kg; for ED50: Mus musculus, iv
Procedure: as §1, §2, §3, §4, §5

[4] = target: T1, CB2 receptor (Homo sapiens, UniProt P34972); assay: CB2 binding procedure: displacement of [3H]CP-55,940 from membranes of transfected CHO cells; conditions: for CB1/CB2 (ratio of Ki): CB1 Ki divided by CB2 Ki; for Ki: [3H]CP-55,940, transfected CHO cell membranes; for fold decrease in CB2 affinity: relative to the comparator analog
T1 construct: expressed in transfected cells; host or cells: CHO cells, G418-selected transfected line
T1 sequence (P34972 whole entry): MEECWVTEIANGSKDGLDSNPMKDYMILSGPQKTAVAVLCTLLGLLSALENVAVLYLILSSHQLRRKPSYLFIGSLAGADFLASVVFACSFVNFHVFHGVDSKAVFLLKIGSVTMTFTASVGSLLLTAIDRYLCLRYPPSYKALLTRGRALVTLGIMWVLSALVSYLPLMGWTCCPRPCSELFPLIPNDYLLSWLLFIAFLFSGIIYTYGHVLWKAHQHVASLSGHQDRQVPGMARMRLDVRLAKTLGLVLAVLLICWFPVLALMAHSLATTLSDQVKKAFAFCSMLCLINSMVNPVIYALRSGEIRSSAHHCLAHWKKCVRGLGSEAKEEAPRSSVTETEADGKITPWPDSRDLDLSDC
Procedure: Membranes for CB2 binding were obtained from CHO cells. The transfected cell line was maintained in Dublecco's Modified Eagle Medium (Gibco BRL, Grand Island, N.Y.) with 10% fetal clone II (HyClone Laboratories, Inc., Logan, Utah) plus 0.3 to 0.5 mg/ml G418 (to maintain selective pressure) under 5% CO2 at 37% C. Cells were harvested with 1 mM EDTA in phosphate-buffered saline and were centrifuged at 1000×g for 5 min at 4% C. The supernatant was saved and the P1 pellet was resuspended in centrifugation buffer. Homogenization and centrifugation were repeated twice and the combined supernatant fractions were centrifuged at 40,000×g for 30 min at 4% C. The P2 pellet was resuspended in centrifugation buffer 2 (Tris HCl, 50 mM; EDTA, 1 mM; and MgCl2, 3 mM, pH 7.4) to a protein concentration of approximately 2 mg/ml. Protein concentrations were determined by the method of Bradford (1976) using Bio-Rad Protein Assay (Bio-Rad, Richmond, Calif.) and BSA standards (fatty acid free, Sigma Chemical Co., St. Louis, Mo.). The membrane preparation was divided into amounts convenient for binding assays and frozen rapidly in dry ice and stored at −80% C.
Binding was initiated by the addition of 50 μg of quickly thawed P2 membranes to test tubes containing [^3H]CP-55,940 (final reaction concentration 0.5 nM), an appropriate concentration of unlabeled CP-55,940 or test drug, and sufficient quantity of assay buffer (50 mM Tris-HCl, 1 mM EDTA, 3 mM MgCl2, 5 mg/ml bovine serum albumin, pH 7.4) to bring the total incubation volume to 0.5 ml. Concentration of [^3H]CP-55,940 in saturation studies ranged from 50 to 10,000 pM. Nonspecific binding was determined by the addition of 1 μM unlabeled CP-55,940. CP-55,940 and all cannabinoid analogs were prepared by suspension in assay buffer from a 1 mg/ml ethanolic stock without evaporation of the ethanol (final concentration of no more than 0.4%). In competition studies, analog concentrations ranged from 0.1 nM to 10 μM. After incubation at 30% C for 1 hr, binding was terminated by the addition of 2 ml of ice-cold wash buffer (50 mM Tris-HCl and 1 mg/ml BSA) and vacuum filtration through pre-treated filters in a 12-well sampling manifold (Millipore, Bedford, Mass.). Reaction vessels were washed once with 2 ml of ice-cold wash buffer. Filters were placed into 7-ml plastic scintillation vials (RPI Corp., Mount Prospect, Ill.) with 4 ml of Budget-Solve (RPI Corp.). After shaking for 30 min, the radioactivity present was determined by liquid scintillation spectrometry. Three reaction vessels were used for each drug concentration in each assay. The results represent the combined data of three independent experiments. All assays were performed in siliconized test tubes, which were prepared by air drying (12 hr) inverted borosilicate tubes after two rinses with a 0.1% solution of AquaSil (Pierce, Rockford, Ill.). The GF/C glass-fiber filters (2.4 cm, Baxter, McGaw Park, Ill.) were pre-treated in a 0.1% solution of pH 7.4 polyethylenimine (Sigma Chemical Co.) for at least 6 hr.
as §6

[5] = tested on: Male ICR mice; assay: Suppression of spontaneous activity (SA) in mice; format: in vivo, mouse; conditions: for S.A ED50 / ED50 SA (suppression of spontaneous activity) / SA percent effect at the highest dose: mice, i.v.; for ED50 SA (suppression of spontaneous activity): 95% confidence limits in parentheses; for SA percent effect at the highest dose: 30 mg/kg, % inhibition of activity of vehicle group
Procedure: as §1, §2, §3, §4, §5

[6] = means ± SEM, read-out: Ki (nM) CB1
[7] = means ± SEM, read-out: Ki (nM) CB2
[8] = mice, i.v., 95% confidence limits in parentheses

Structure (SMILES) | R.T. effect at dose ([1]; Table 6) | Ki [2, 6] [nM] | T.F. % effect at dose ([3]; Table 6) | CB1/CB2 (ratio of Ki) [4] | Ki [4, 7] | S.A % effect at dose ([5]; Table 6, @ 30 (mg/kg)) | fold decrease in CB2 affinity [4] [fold] | RT effect at the highest dose (change in rectal temperature) ([1]; mice, i.v.) | TF percent effect (% MPE) at the highest dose ([3]; mice, i.v.) | SA percent effect at the highest dose [5] | also measured
CCCCCCC(C)(C)c1cc(OC)c(C2(O)CCCC(C)C2)c(OC)c1 (single isomer, unassigned; isomer 1) [O-1966A, 1-(4-(1,1-Dimethylheptyl-2,6-dimethoxy-phenyl)-3-methyl-cyclohexanol isomer 1] | 0.5 @ 30 °C | 5060 ± 984 | 5.1 @ 30% | 220 | 22.5 nM and 23 nM | – | – | – | – | – | CB2 selectivity [4]: 225 fold
CCCCCCC(C)(C)c1cc(OC)c(C2CCCC(C)C2)c(OC)c1 (centres unmarked) [O-1999] | 1 @ 30 °C | > 10000 | 6 @ 30% | – | 466 ± 110 nM | 4 @ 30% | ~600 | – | – | – | –
CCCCCCC(C)(C)c1cc(OC)c(C2(O)CCCC(C)C2)c(OC)c1 (single isomer, unassigned; isomer 2) [O-1967B, 1-(4-(1,1-Dimethylheptyl-2,6-dimethoxy-phenyl)-3-methyl-cyclohexaol isomer 2] | 0 @ 30 °C | 1720 ± 105 | 8.2% @ 30 | 15 | 111 ± 8 nM | 42.9 @ 30% | – | – | – | – | –
CCCCCCC(C)(C)c1cc(O)c(C2CCCC(C)C2)c(O)c1 (single isomer, unassigned) [O-1798B, 2-(3-Methylcyclohexyl)-5-(1′,1′-dimethylheptyl)-resorcinolisomer B] | – | 4 ± 0.6 | – | 8 | 0.5 ± 0.07 nM | – | – | – | – | – | R.T. ED50 ([1]; Table 6, mice, i.v.): 0.218 mg/kg; ED50 RT (rectal temperature) [1, 8]: 0.6(0.5–0.7) μmol/kg; T.F. ED50 ([3]; Table 6, mice, i.v.): 0.379 mg/kg; ED50 TF (antinociceptive effect in tail flick assay) [3, 8]: 1.0(0.7–1.6) μmol/kg; S.A ED50 ([5]; Table 6): 0.070 mg/kg; ED50 SA (suppression of spontaneous activity) [5]: 0.2(0.03–1.2) μmol/kg
CCCCCCC(C)(C)c1cc(O)c(C2CCC(c3ccccc3)CC2)c(O)c1 (centres unmarked) [O-1663, 2-(4-Phenylcyclohexyl)-5-(1′,1′-dimethylheptyl)-resorcinol] | – | – | 7% @ 30 | 16 | – | 32% @ 30 | 2 | −2.2(30) °C | 7%(30) | 32%(30) | Ki ([2]; Ki (nM) CB1, means ± SEM): 144 ± 22 nM; fold decrease in CB1 affinity [2]: 3 fold; Ki ([4]; Ki (nM) CB2, means ± SEM): 9 ± 2 nM
CCCCCCC(C)(C)c1cc(OC)c(C2CCOCC2)c(OC)c1 [O-1964, 4-(4-(1,1-Dimethylheptyl)-2,6-dimethoxy-phenyl)-tetrahydro-pyran] | – | > 10000 | 30% @ 30 | – | 911 ± 116 nM | – | ~2 | – | – | – | –
C=C(C)[C@@H]1CCC(C)=C[C@H]1c1c(C)cc(O)cc1O (single isomer, unassigned) [O-1602] | 0.3 @ 30 °C | – | 0 @ 30% | – | – | – | – | – | – | – | S.A % effect at dose, stim. ([5]; Table 6, stimulation, @ 30 (mg/kg)): 66% stim.
CCCC(C)(C)c1ccc(-c2cc(C)ccc2C(C)C)c(O)c1 [O-1532] | – | 876 ± 18 | – | 8 | 113 ± 21 nM | – | – | −0.4 °C | 7% | 32% | –
CCCCCCC(C)(C)c1cc(O)c(C2CCCC(C)C2)c(O)c1 (single isomer, unassigned) [O-1797A] | – | 5 ± 0.6 | – | 12 | 0.4 ± 0.03 nM | – | – | – | – | – | ED50 ([1]; Table 6, mice, i.v., read-out: R.T. ED50): 0.252 mg/kg; ED50 ([1]; mice, i.v., 95% confidence limits in parentheses, read-out: ED50 RT (rectal temperature)): 0.7 µmol/kg; ED50 ([3]; Table 6, mice, i.v., read-out: T.F. ED50): 0.362 mg/kg; ED50 ([3]; mice, i.v., 95% confidence limits in parentheses, read-out: ED50 TF (antinociceptive effect in tail flick assay)): 1.1 µmol/kg; S.A ED50 ([5]; Table 6, listed as O-1297): 0.154 mg/kg; ED50 SA (suppression of spontaneous activity) [5]: 0.5(0.4–0.6) μmol/kg
CCCCCCc1ccc(O)c(C2CCCCC2)c1O [O-2010, 2-Cyclohexyl-4-hexyl resorcinol] | – | 9510 ± 332 | 9.0% @ 30 | – | – | – | – | −0.4(30) °C | 9%(30) | −18%(30) | fold decrease in CB1 affinity [2]: 865 fold
